Structures are written as SMILES. Structures can show the parent of a compound that is named as a salt. Square brackets hold non-standard residues; d marks the D form. Peptide text beside a SMILES is read from it. pGlu = O=C1CC[C@@H](C(=O)O)N1; Thz = O=C(O)[C@@H]1CSCN1

The target of the first test is SARS-CoV-2 Mac1 (Severe acute respiratory syndrome coronavirus 2, UniProt P0DTD1). Kind of test: biochemical. Particulars: 100 µM; inhibitor.
As for `COc1ccnc(C[S+]([O-])c2nc3cc(OC(F)F)ccc3[nH]2)c1OC` (stereo not drawn) [Pantoprazole sodium], the “%inhibition” value is reported as 0%.

As for `COc1ccnc(C[S+]([O-])c2nc3cc(OC(F)F)ccc3[nH]2)c1OC` (stereo not drawn) [Pantoprazole], the “%inhibition” value is recorded as 6.936%.

For `CCC(=O)NS(=O)(=O)c1ccc(-c2c(-c3ccccc3)noc2C)cc1` [Parecoxib Sodium], the “%inhibition” value was 8.572%.

With `CCC(=O)NS(=O)(=O)c1ccc(-c2c(-c3ccccc3)noc2C)cc1` [Parecoxib], the “%inhibition” value is 0%.

For `Fc1ccc([C@@H]2CCNC[C@H]2COc2ccc3c(c2)OCO3)cc1` [Paroxetine HCl], the “%inhibition” value was 28.69%.

In the case of `Fc1ccc([C@@H]2CCNC[C@H]2COc2ccc3c(c2)OCO3)cc1` [Paroxetine mesylate], the “%inhibition” value worked out at 0%.

Regarding `Cc1ccc(Nc2nccc(N(C)c3ccc4c(C)n(C)nc4c3)n2)cc1S(N)(=O)=O` [Pazopanib HCl (GW786034 HCl)], the “%inhibition” value is given as 31.56%.

Turning to `Cc1ccc(Nc2nccc(N(C)c3ccc4c(C)n(C)nc4c3)n2)cc1S(N)(=O)=O` [Pazopanib], the “%inhibition” value stood at 12.94%.

Consider `Nc1nc2[nH]cc(CCc3ccc(C(=O)N[C@@H](CCC(=O)O)C(=O)O)cc3)c2c(=O)[nH]1` [Pemetrexed], for which the “%inhibition” value is given as 4.612%.

Still in this test, the particulars now being: read-out: %inhibition.
In the case of `O=C1c2cccc3c2[C@H](CCC3)CN1[C@@H]1CN2CCC1CC2` [Palonosetron HCl], the inhibition at 100 µM turned out to be 0%.

For the molecule `NCCC(O)(P(=O)(O)O)P(=O)(O)O` [Pamidronate Disodium], the inhibition at 100 µM turned out to be 0.654%.

For the molecule `CC(=O)O[C@H]1C[C@@H]2CC[C@@H]3[C@H](CC[C@@]4(C)[C@H]3C[C@H]([N+]3(C)CCCCC3)[C@@H]4OC(C)=O)[C@@]2(C)C[C@@H]1[N+]1(C)CCCCC1` [Pancuronium dibromide], the inhibition at 100 µM was determined as 0%.

In the case of `Cc1[nH]c2ccccc2c1CCNCc1ccc(/C=C/C(=O)NO)cc1` [Panobinostat (LBH589)], the inhibition at 100 µM was 7.31%.

Take `C#CCN(C)Cc1ccccc1` [Pargyline hydrochloride]: the inhibition at 100 µM worked out at 0%.

As for `Cc1cnc(C(=O)N[C@H]2CCCCC/C=C\[C@@H]3C[C@@]3(C(=O)NS(=O)(=O)C3CC3)NC(=O)[C@@H]3C[C@@H](Oc4nc5ccccc5c5ccccc45)CN3C2=O)cn1` [Paritaprevir (ABT-450)], the inhibition at 100 µM stood at 0%.

With `NC[C@@H]1O[C@H](O[C@H]2[C@@H](O)[C@H](O[C@@H]3[C@@H](O)[C@H](N)C[C@H](N)[C@H]3O[C@H]3O[C@H](CO)[C@@H](O)[C@H](O)[C@H]3N)O[C@@H]2CO)[C@H](N)[C@@H](O)[C@@H]1O` [Paromomycin Sulfate], the inhibition at 100 µM worked out at 0.814%.

Take `C/C(=C\c1csc(C)n1)[C@@H]1C[C@@H]2O[C@]2(C)CCC[C@H](C)[C@H](O)[C@@H](C)C(=O)C(C)(C)[C@@H](O)CC(=O)O1` [Patupilone (EPO906, Epothilone B)]: the inhibition at 100 µM is 19.2%.

In the case of `C[C@H]1COc2c(C3(N)CC3)c(F)cc3c(=O)c(C(=O)O)cn1c23` [Pazufloxacin mesylate], the inhibition at 100 µM is 0%.

For the molecule `CCOc1cc2ncc(C#N)c(Nc3ccc(F)c(Cl)c3)c2cc1NC(=O)/C=C/CN(C)C` [Pelitinib (EKB-569)], the inhibition at 100 µM stood at 0%.

On to `Nc1nc2[nH]cc(CCc3ccc(C(=O)N[C@@H](CCC(=O)O)C(=O)O)cc3)c2c(=O)[nH]1` [Pemetrexed Disodium Hydrate], for which the inhibition at 100 µM came out at 6.24%.

As to `Cc1cccn2c(=O)c(-c3nnn[nH]3)cnc12` [Pemirolast potassium], the inhibition at 100 µM is 0%.

Take `CN1C(C)(C)CCCC1(C)C` [Pempidine]: the inhibition at 100 µM worked out at 28.2%.

As to `Nc1nc(O)c2ncn(CCC(CO)CO)c2n1` [Penciclovir], the inhibition at 100 µM amounted to 14.9%.

`OC1(c2ccc(Cl)c(C(F)(F)F)c2)CCN(CCCC(c2ccc(F)cc2)c2ccc(F)cc2)CC1` [Penfluridol]: the inhibition at 100 µM is 5.86%.

For `CC(C)(S)[C@@H](N)C(=O)O` [Penicillamine], the inhibition at 100 µM turned out to be 0.561%.

Take `CC1(C)S[C@@H]2[C@H](NC(=O)Cc3ccccc3)C(=O)N2[C@H]1C(=O)O` [Penicillin G Sodium]: the inhibition at 100 µM was found to be 5.64%.

For `CC1(C)S[C@@H]2[C@H](NC(=O)COc3ccccc3)C(=O)N2[C@H]1C(=O)O` [Penicillin V potassium salt], the inhibition at 100 µM stood at 0%.

Consider `N=C(N)c1ccc(OCCCCCOc2ccc(C(=N)N)cc2)cc1` [Pentamidine isethionate], for which the inhibition at 100 µM was 0%.

Turning to `CC(=O)CCCCn1c(=O)c2c(ncn2C)n(C)c1=O` [Pentoxifylline], the inhibition at 100 µM amounted to 19.6%.

On to `CCN(CC)CCOCCOC(=O)C1(c2ccccc2)CCCC1` [Pentoxyverine Citrate], for which the inhibition at 100 µM came to 24.6%.

For the molecule `CCCN1C[C@H](CSC)C[C@@H]2c3cccc4[nH]cc(c34)C[C@H]21` [Pergolide Mesylate], the inhibition at 100 µM is 7.58%.

For `CCC[C@H](N[C@@H](C)C(=O)N1[C@H](C(=O)O)C[C@@H]2CCCC[C@@H]21)C(=O)OCC` [Perindopril Erbumine], the inhibition at 100 µM worked out at 5.79%.

`OCCN1CCN(CCCN2c3ccccc3Sc3ccc(Cl)cc32)CC1` [Perphenazine]: the inhibition at 100 µM amounted to 0%.

As for `FC(F)(F)c1ccc(CNc2ccc(Cc3c[nH]c4ncc(Cl)cc34)cn2)cn1` [Pexidartinib (PLX3397)], the inhibition at 100 µM came to 0.21%.

As to `Cc1ccc(-n2nc(C(C)(C)C)cc2NC(=O)NCc2cc(F)ccc2Oc2ccc3c(cnn3CCO)c2)cc1` [Pexmetinib (ARRY-614)], the inhibition at 100 µM was 0.769%.

As for `CCOc1ccc(NC(C)=O)cc1` [Phenacetin], the inhibition at 100 µM turned out to be 11.4%.

As for `Nc1ccc(/N=N/c2ccccc2)c(N)n1` [Phenazopyridine HCl], the inhibition at 100 µM worked out at 17%.

Regarding `N=C(N)NC(=N)NCCc1ccccc1` [Phenformin HCl], the inhibition at 100 µM amounted to 30.5%.

With `O=C1c2ccccc2C(=O)C1c1ccccc1` [Phenindione], the inhibition at 100 µM was 28.8%.

Take `CN(C)CCC(c1ccccc1)c1ccccn1` (stereo not drawn) [Pheniramine Maleate]: the inhibition at 100 µM amounted to 9.19%.

For the molecule `c1ccc2c(c1)Nc1ccccc1S2` [Phenothiazine], the inhibition at 100 µM was 18.2%.

For the molecule `CC(COc1ccccc1)N(CCCl)Cc1ccccc1` (stereo not drawn) [Phenoxybenzamine HCl], the inhibition at 100 µM came to 0%.

Turning to `Cc1ccc(N(CC2=NCCN2)c2cccc(O)c2)cc1` [Phentolamine Mesylate], the inhibition at 100 µM was found to be 0%.

With `CCCCC1C(=O)N(c2ccccc2)N(c2ccccc2)C1=O` [Phenylbutazone], the inhibition at 100 µM worked out at 0%.

For the molecule `CNC[C@H](O)c1cccc(O)c1` [Phenylephrine HCl], the inhibition at 100 µM was 14.5%.

For `O=C1N=C(O)NC1(c1ccccc1)c1ccccc1` [Phenytoin Sodium], the inhibition at 100 µM stood at 16%.

As for `O=C1NC(=O)C(c2ccccc2)(c2ccccc2)N1` [Phenytoin], the inhibition at 100 µM came out at 14.7%.

With `CC(=O)NS(=O)(=O)c1ccc(NC(=O)c2ccccc2C(=O)O)cc1` [Phthalylsulfacetamide], the inhibition at 100 µM was 6.67%.

For the molecule `CS(=O)(=O)N1CCN(Cc2cc3nc(-c4cccc5[nH]ncc45)nc(N4CCOCC4)c3s2)CC1` [Pictilisib (GDC-0941)], the inhibition at 100 µM worked out at 10.2%.

Regarding `O=C1CC[C@@H](C(=O)N2CSC[C@H]2C(=O)O)N1` [Pidotimod] ([pGlu]-[Thz]-OH), the inhibition at 100 µM was determined as 4.19%.

Turning to `COc1ccc(Cl)c(Nc2nc3ccccc3nc2NS(=O)(=O)c2cccc(NC(=O)C(C)(C)N)c2)c1` [Pilaralisib (XL147)], the inhibition at 100 µM came to 31.9%.

As for `CC[C@@H]1C(=O)OC[C@@H]1Cc1cncn1C` [Pilocarpine HCl], the inhibition at 100 µM was 0%.

As for `CC(C)COc1ccc(CNC(=O)N(Cc2ccc(F)cc2)C2CCN(C)CC2)cc1` [Pimavanserin], the inhibition at 100 µM amounted to 1.16%.

For `CC[C@@H]1/C=C(\C)C[C@H](C)C[C@H](OC)[C@H]2O[C@@](O)(C(=O)C(=O)N3CCCC[C@H]3C(=O)O[C@H](/C(C)=C/[C@@H]3CC[C@H](Cl)[C@H](OC)C3)[C@H](C)[C@@H](O)CC1=O)[C@H](C)C[C@@H]2OC` [Pimecrolimus], the inhibition at 100 µM was 25.5%.

For `COc1ccc(-c2nc3cc(C4=NNC(=O)CC4C)ccc3[nH]2)cc1` (stereo not drawn) [Pimobendan], the inhibition at 100 µM is 13%.

On to `O=c1[nH]c2ccccc2n1C1CCN(CCCC(c2ccc(F)cc2)c2ccc(F)cc2)CC1` [Pimozide], for which the inhibition at 100 µM is 0%.

For the molecule `CCc1ccc(CCOc2ccc(CC3SC(=O)NC3=O)cc2)nc1` (stereo not drawn) [Pioglitazone], the inhibition at 100 µM amounted to 0%.

With `CCn1cc(C(=O)O)c(=O)c2cnc(N3CCNCC3)nc21` [Pipemidic acid], the inhibition at 100 µM turned out to be 0%.

Take `CCN1CCN(C(=O)N[C@@H](C(=O)N[C@@H]2C(=O)N3[C@@H]2SC(C)(C)[C@@H]3C(=O)O)c2ccccc2)C(=O)C1=O` [Piperacillin Sodium]: the inhibition at 100 µM is 24.2%.

On to `C1CNCCN1` [Piperazine], for which the inhibition at 100 µM turned out to be 5.65%.

Regarding `O=C(/C=C/C=C/c1ccc2c(c1)OCO2)N1CCCCC1` [Piperine], the inhibition at 100 µM was 0%.

Consider `NC(=O)CN1CCCC1=O` [Piracetam], for which the inhibition at 100 µM was 9.88%.

Consider `Cc1ccc(=O)n(-c2ccccc2)c1` [Pirfenidone], for which the inhibition at 100 µM worked out at 15.4%.

As to `CCn1cc(C(=O)O)c(=O)c2cnc(N3CCCC3)nc21` [Piromidic Acid], the inhibition at 100 µM worked out at 10.1%.

As to `CN1C(C(=O)Nc2ccccn2)=C(O)c2ccccc2S1(=O)=O` [Piroxicam], the inhibition at 100 µM worked out at 38%.

`O=C(O)C[C@H](O)C[C@H](O)/C=C/c1c(C2CC2)nc2ccccc2c1-c1ccc(F)cc1` [Pitavastatin Calcium]: the inhibition at 100 µM was 13.3%.

`CN1CCC(=C2c3ccccc3CCc3sccc32)CC1` [Pizotifen Malate]: the inhibition at 100 µM was 0%.

Take `c1cc(CN2CCCNCCNCCCNCC2)ccc1CN1CCCNCCNCCCNCC1` [Plerixafor (AMD3100)]: the inhibition at 100 µM amounted to 8.18%.

Consider `Nc1cccc2c1C(=O)N(C1CCC(=O)NC1=O)C2=O` (stereo not drawn) [Pomalidomide], for which the inhibition at 100 µM was determined as 0%.

(Values after paper doi:10.1101/2021.10.07.463234v2 (biorxiv, 2021).)
